Laboratory results as given in patent US5159081A, “Intermediates of peripherally selective N-carbonyl-3,4,4-trisubstituted piperidine opioid antagonists” (Eli Lilly and Company, priority 1991, dated 1992).
Where a name gives a salt, the structure may show the parent alone. Read-outs that look alike come from different tables or passages of the source.

Assays:
opioid receptor = biological target: T1, opioid receptor (Mus musculus, UniProt P42866); test: in vivo; parameters: species or system CF-1 male mice; conditions: sc
T1 construct: Five CF-1 male mice (Charles River, Portage, MI); from tissue; host or cells: living CF-1 male mice (whole animal, endogenous receptor)

mu receptor = biological target: T2, mu receptor (Rattus norvegicus, UniProt P33535); test: Naloxone [3H] opioid receptor binding assay (mu receptor); parameters: species or system rat (male Sprague Dawley)
T2 construct: The brain tissue, rat whole brain minus cerebellum for mu was homogenized; from tissue; host or cells: brain minus cerebellum of male Sprague Dawley rats, homogenate fraction

[1] = system: peripheral opioid receptors; test: mouse diarrhea test: precipitated diarrhea in morphine-maintained mice (peripheral opioid activity); assay type: in vivo
[2] = biological target: peripheral opioid receptors (Mus musculus, UniProt P42866); test: as above; assay type: in vivo; conditions: mouse diarrhea test, morphine-maintained mice, subcutaneous or oral, 30 min observation
[3] = mouse writhing test, […], s.c. 20 min before acetic acid, read-out: AD50 (the source's name)
[4] = 20 min, pH 7.4, 10 nM test compound, [3H]naloxone 0.5 nM, mu receptor, read-out: % displacement at 10 nM
[5] = 20 min, pH 7.4, 100 nM test compound, [3H]naloxone 0.5 nM, mu receptor, read-out: % displacement at 100 nM
[6] = AD50 mouse writhing / ED50 mouse diarrhea, higher = greater relative peripheral antagonism
[7] = 20 min, pH 7.4, read-out: % displacement at 10 nM
[8] = 20 min, pH 7.4, read-out: % displacement at 100 nM
[9] = […], rat whole brain minus cerebellum, [3H]naloxone 0.5 nM, pH 7.4, 37° C., 20 min, read-out: Ki

T2 sequence (P33535 whole entry): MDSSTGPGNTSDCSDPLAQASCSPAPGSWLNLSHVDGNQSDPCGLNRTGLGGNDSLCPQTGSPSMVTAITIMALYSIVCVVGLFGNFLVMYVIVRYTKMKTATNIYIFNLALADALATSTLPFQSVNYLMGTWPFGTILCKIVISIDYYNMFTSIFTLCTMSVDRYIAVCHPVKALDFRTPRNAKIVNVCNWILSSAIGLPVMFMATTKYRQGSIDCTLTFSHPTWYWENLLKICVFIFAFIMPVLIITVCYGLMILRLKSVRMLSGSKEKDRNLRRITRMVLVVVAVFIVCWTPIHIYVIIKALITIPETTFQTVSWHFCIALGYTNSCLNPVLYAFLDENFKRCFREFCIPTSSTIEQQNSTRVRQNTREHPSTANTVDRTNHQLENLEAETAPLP
Sequence of peripheral opioid receptors (Mus musculus, UniProt P42866) (P42866 whole entry): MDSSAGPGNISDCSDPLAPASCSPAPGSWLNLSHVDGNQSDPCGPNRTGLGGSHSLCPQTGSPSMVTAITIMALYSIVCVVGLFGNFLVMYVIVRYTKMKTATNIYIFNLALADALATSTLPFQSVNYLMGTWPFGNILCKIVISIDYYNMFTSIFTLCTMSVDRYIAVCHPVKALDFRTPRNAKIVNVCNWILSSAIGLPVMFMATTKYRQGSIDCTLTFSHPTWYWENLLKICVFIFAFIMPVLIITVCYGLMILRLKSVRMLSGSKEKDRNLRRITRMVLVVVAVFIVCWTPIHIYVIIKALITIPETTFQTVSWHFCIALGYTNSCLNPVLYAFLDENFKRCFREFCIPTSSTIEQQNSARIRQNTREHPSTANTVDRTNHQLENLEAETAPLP
T1 sequence (P42866 whole entry): as above

| Structure (SMILES) | ED50 (opioid receptor; [3]) | inhibition at 0.01 µM (mu receptor; [4]) | inhibition at 0.1 µM (mu receptor; [5]) | Ratio (ratio of AD50 to ED50) [1, 6] | ED50 ([2]; 0.5 h, read-out: ED50) | inhibition at 0.01 µM (mu receptor; [7]) | inhibition at 0.1 µM (mu receptor; [8]) | Ki (mu receptor; [9]) | ED50 [2] | ED50 (opioid receptor; mouse writhing test, dose of antagonist that reduced inhibition of writhing by 1.25 mg/kg morphine sulfate to 50%, s.c. 20 min before acetic acid, read-out: AD50 (the source's name)) | Ratio (ratio of AD50 to ED50) ([1]; mouse, in vivo) | ED50 (opioid receptor; mouse, read-out: AD50) | Ki (mu receptor) |
| --- | --- | --- | --- | --- | --- | --- | --- | --- | --- | --- | --- | --- | --- |
| C[C@H]1CN(CCN(C(=O)CC(=O)O)C2CCCCC2)CC[C@@]1(C)c1cccc(O)c1 (relative stereo) [Example 21, 3-(cyclohexyl-(2-(trans-4-(3-hydroxyphenyl)-3,4-dimethyl-1-piperidinyl)ethyl)amino)-3-oxopropanoic acid monohydrate] | 17.1 mg/kg | 53% | 80% | 71 | 0.073 mg/kg | – | – | – | – | – | – | – | – |
| C[C@H]1CN(C[C@H](CC2CCCCC2)NC(=O)CCCC(=O)OCC(N)=O)CC[C@@]1(C)c1cccc(O)c1 [Example 61] | 22 mg/kg | – | – | 169 | – | 88% | 97% | 2.86 nM | 0.13 mg/kg | – | – | – | – |
| CC(C)CCN(CCN1CC[C@@](C)(c2cccc(O)c2)[C@@H](C)C1)C(=O)CCC(=O)O (relative stereo) [Example 28, 4-(3-methylbutyl-(2-(trans-4-(3-hydroxyphenyl)-3,4-dimethyl-1-piperidinyl)ethyl)amino)-4-oxobutanoic acid monohydrate] | – | 67% | 100% | > 12 | 0.1 mg/kg | – | – | – | – | > 1.25 mg/kg | – | – | – |
| CC(C)COC(=O)CCCC(=O)N[C@H](CC1CCCCC1)CN1CC[C@](C)(c2cccc(O)c2)[C@H](C)C1 [Example 58] | > 40 mg/kg | 0% | 38% | > 235 | 0.17 mg/kg | – | – | – | – | – | – | – | – |
| CCOC(=O)CC(=O)N[C@H](Cc1ccccc1)CN1CC[C@](C)(c2cccc(O)c2)[C@H](C)C1 [Example 12, Ethyl trans-3-((2-(4-(3-hydroxyphenyl)-3,4-dimethyl-1-piperidinyl)-1-(D-(phenylmethyl)ethyl)amino))-3-oxopropionate hydrochloride] | 20 mg/kg | – | – | – | – | 43% | 87% | – | 0.20 mg/kg | – | 100 | – | – |
| CCNC(=O)COC(=O)CCCC(=O)N[C@@H](CC1CCCCC1)CN1CC[C@@](C)(c2cccc(O)c2)[C@@H](C)C1 [Example 66] | 12.2 mg/kg | – | – | 2440 | – | 81% | 94% | 1.84 nM | 0.005 mg/kg | – | – | – | – |
| C[C@H]1CN(CCC(CC2CCCCC2)NC(=O)CCC(=O)O)CC[C@@]1(C)c1cccc(O)c1 (some centres unmarked) [Example 1, 4-[(3-(4-(3-hydroxyphenyl)-3,4-dimethyl-1-piperidinyl)-1-(cyclohexylmethyl)propyl)amino]-4-oxobutanoic acid monohydrate] | – | – | – | – | – | 72% | 94% | – | 0.01 mg/kg | – | > 4000 | > 40 mg/kg | 6.88 nM |
| C[C@H]1CN(C[C@H](CC2CCCCC2)NC(=O)CCCC(=O)O)CC[C@@]1(C)c1cccc(O)c1 [Example 45D] | > 40 mg/kg | – | – | > 1379 | – | 82% | 94% | 0.56 nM | 0.029 mg/kg | – | – | – | – |
| C[C@H]1CN(CCN(C(=O)CCC(=O)O)c2ccccc2)CC[C@@]1(C)c1cccc(O)c1 (relative stereo) [Example 19, 4-((2-(Trans-4-(3-hydroxyphenyl)-3,4-dimethyl-1-piperidinyl)ethyl)phenylamino-4-oxobutanoic acid monohydrate] | 6.3 mg/kg | 48% | 92% | 77 | 0.082 mg/kg | – | – | – | – | – | – | – | – |
| CC(C)COC(=O)CCCC(=O)N[C@H](CC1CCCCC1)CN1CC[C@@](C)(c2cccc(O)c2)[C@@H](C)C1 [Example 59] | > 40 mg/kg | 6% | 53% | > 678 | 0.059 mg/kg | – | – | – | – | – | – | – | – |
| C[C@H]1CN(C[C@@H](CC2CCCCC2)NC(=O)CCCC(=O)O)CC[C@@]1(C)c1cccc(O)c1 [Example 46D] | 6.5 mg/kg | – | – | 72 | – | 48% | 84% | – | 0.09 mg/kg | – | – | – | – |
| CC(C)CC(=O)NC(CCCNC(=N)N[N+](=O)[O-])C(=O)NCCN1CCC(C)(c2cccc(O)c2)C(C)C1 (stereo not drawn) [Example 43, Trans-N-(2-(4-(3-hydroxyphenyl)-3,4-dimethyl-1-piperidinyl)ethyl)-2-((3-methyl-1-oxobutyl)amino)-5-((imino(nitroamino)methyl)amino) pentanamide] | > 10 mg/kg | 59% | 97% | > 10 | < 1 mg/kg | – | – | – | – | – | – | – | – |
| CCOC(=O)CCCC(=O)N(CCN1CC[C@@](C)(c2cccc(O)c2)[C@@H](C)C1)C1CCCCC1 (relative stereo) [Example 32, 5-(Cyclohexyl-(2-(trans-4-(3-hydroxyphenyl)-3,4-dimethyl-1-piperidinyl)ethyl)amino)-5-oxopentanoic acid ethyl ester monohydrochloride] | 9.4 mg/kg | 40% | 100% | 59 | 0.16 mg/kg | – | – | – | – | – | – | – | – |
| C[C@H]1CN(CCN(C(=O)CCC(=O)OCC2CCCCC2)C2CCCCC2)CC[C@@]1(C)c1cccc(O)c1 (relative stereo) [Example 73] | 9.2 mg/kg | 46% | 88% | 54 | 0.17 mg/kg | – | – | – | – | – | – | – | – |
| CCOC(=O)CCC(=O)NC(CCN1CC[C@@](C)(c2cccc(O)c2)[C@@H](C)C1)CC(C)C (single isomer, unassigned) [Example 2A, 4-[[1-[2-[4-(3-hydroxyphenyl)-3,4-dimethyl-1-piperidinyl]-ethyl]-3-methylbutyl)amino]-4-oxobutanoic acid ethyl ester] | 8.4 mg/kg | – | – | 29 | – | 98% | 100% | 0.64 nM | 0.29 mg/kg | – | – | – | – |
| COC1CCC(OC(=O)CCCC(=O)N[C@@H](CC2CCCCC2)CN2CC[C@](C)(c3cccc(O)c3)[C@H](C)C2)CC1 (some centres unmarked) [Example 69] | > 40 mg/kg | 37% | 83% | > 1333 | 0.03 mg/kg | – | – | – | – | – | – | – | – |
| CNC(=O)COC(=O)CCCC(=O)N[C@@H](CC1CCCCC1)CN1CC[C@](C)(c2cccc(O)c2)[C@H](C)C1 [Example 62] | > 40 mg/kg | – | – | > 1333 | – | 70% | 96% | – | 0.03 mg/kg | – | – | – | – |
| CCOC(=O)CCC(=O)N(CCN1CC[C@@](C)(c2cccc(O)c2)[C@@H](C)C1)C1CCCCC1 (relative stereo) [Example 71] | 3.71 mg/kg | – | – | 13 | – | 78% | 96% | 3.85 nM | 0.29 mg/kg | – | – | – | – |
| CCOC(=O)CCC(=O)NC(CCN1CC[C@@](C)(c2cccc(O)c2)[C@@H](C)C1)CC(C)C (some centres unmarked) [Example 2B, 4-[[1-[2-[4-(3-hydroxyphenyl)-3,4-dimethyl-1-piperidinyl]-ethyl]-3-methylbutyl)amino]-4-oxobutanoic acid ethyl ester] | 10.2 mg/kg | – | – | 54 | – | 93% | 99% | 1.2 nM | 0.19 mg/kg | – | – | – | – |
| CCNC(=O)COC(=O)CCCC(=O)N[C@@H](CC1CCCCC1)CN1CC[C@](C)(c2cccc(O)c2)[C@H](C)C1 [Example 65] | > 40 mg/kg | – | – | > 2000 | – | 67% | 93% | – | 0.02 mg/kg | – | – | – | – |
